Measured values: patent publication US20080234262A1 (Wyeth, priority 2007, published 2008)

Tests used:
[1] = test system: breast line MDA468; test: In vitro cell culture growth assay (MTS), MDA468; format: cell-based, human; details: MDA468 cells, three days after drug treatment
How it was run: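 Growth measured as percent of same-plate vehicle control by MTS metabolic dye conversion (A490). Breast MDA468 and prostate LNCap cells, plated a day ahead, were exposed to compounds for 3 days.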

[2] = test system: prostate line LNCap; test: In vitro cell culture growth assay (MTS), LNCap; format: cell-based, human; details: LNCap cells, three days after drug treatment;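 also: viable cell density read by absorbance at 490 nm, growth expressed as percent of vehicle-treated cells on the same plate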
[3] = biological target: PI3K (Homo sapiens, UniProt P42336); test: Fluorescence polarization assay for PI3K; format: biochemical; details: PI3Kα; read-out: PI3Kα IC50;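 also: PI3K kinase reaction on PIP2 with ATP, 30-60 min, product sensed by GST-GRP with red probe in fluorescence polarization (mP), controls without enzyme and at zero time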
PI3K, sequence (P42336 whole entry): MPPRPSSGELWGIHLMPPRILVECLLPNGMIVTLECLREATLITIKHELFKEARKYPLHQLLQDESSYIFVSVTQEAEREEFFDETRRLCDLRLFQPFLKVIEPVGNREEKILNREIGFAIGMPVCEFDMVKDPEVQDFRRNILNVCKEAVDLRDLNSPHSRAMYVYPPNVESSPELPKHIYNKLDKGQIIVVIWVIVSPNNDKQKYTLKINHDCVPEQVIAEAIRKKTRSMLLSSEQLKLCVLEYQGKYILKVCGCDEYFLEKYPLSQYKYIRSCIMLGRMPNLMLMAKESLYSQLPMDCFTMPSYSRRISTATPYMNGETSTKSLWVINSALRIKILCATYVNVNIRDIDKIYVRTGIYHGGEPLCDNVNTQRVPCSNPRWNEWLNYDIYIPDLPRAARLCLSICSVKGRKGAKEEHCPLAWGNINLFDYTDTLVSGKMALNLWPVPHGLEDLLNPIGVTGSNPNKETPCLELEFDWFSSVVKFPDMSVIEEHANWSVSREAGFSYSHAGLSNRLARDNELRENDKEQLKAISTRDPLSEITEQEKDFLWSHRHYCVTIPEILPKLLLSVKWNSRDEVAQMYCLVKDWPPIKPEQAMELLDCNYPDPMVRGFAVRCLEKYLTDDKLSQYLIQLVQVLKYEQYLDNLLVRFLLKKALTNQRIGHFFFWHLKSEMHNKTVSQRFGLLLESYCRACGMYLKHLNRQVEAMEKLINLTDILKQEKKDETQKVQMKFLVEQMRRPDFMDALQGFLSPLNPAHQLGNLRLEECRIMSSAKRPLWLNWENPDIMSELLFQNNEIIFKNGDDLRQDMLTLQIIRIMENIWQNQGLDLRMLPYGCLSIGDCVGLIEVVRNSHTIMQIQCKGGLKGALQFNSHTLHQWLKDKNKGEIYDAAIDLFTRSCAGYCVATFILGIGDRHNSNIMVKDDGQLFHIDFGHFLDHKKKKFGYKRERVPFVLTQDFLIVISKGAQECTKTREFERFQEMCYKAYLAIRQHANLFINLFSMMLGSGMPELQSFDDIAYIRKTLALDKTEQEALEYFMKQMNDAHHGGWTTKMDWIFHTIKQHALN
PI3K, sequence (P27986 whole entry partner): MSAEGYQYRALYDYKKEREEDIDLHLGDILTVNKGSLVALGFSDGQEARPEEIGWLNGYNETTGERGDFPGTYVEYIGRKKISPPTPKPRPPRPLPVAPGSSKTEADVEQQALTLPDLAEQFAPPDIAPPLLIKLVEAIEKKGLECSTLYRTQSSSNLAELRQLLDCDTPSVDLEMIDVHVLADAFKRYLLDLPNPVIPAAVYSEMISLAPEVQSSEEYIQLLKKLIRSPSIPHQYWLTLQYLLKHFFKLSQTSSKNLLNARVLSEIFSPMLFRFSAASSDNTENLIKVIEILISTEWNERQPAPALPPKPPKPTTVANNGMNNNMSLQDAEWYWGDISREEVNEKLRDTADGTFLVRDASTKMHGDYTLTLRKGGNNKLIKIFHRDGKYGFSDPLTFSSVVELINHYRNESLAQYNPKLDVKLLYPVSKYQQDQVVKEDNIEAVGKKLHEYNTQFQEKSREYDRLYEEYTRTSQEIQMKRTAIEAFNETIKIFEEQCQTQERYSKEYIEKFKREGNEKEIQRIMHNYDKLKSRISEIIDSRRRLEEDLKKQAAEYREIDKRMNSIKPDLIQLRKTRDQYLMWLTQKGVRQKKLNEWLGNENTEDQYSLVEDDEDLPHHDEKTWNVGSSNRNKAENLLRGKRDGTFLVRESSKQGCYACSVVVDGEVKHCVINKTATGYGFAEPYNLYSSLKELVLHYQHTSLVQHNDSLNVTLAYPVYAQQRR

| SMILES | IC50 ([2]; Homo sapiens, LNCaP, 72 h) [nM] | IC50 [3] [nM] | IC50 [2] [nM] | IC50 ([1]; Homo sapiens, 72 h) [nM] | IC50 [1] [nM] |
| --- | --- | --- | --- | --- | --- |
| O=C(NCCF)Nc1ccc(-c2nc(N3CCOCC3)c3cnn(C4CCN(C(=O)c5ccccc5)CC4)c3n2)cc1 [Compound 625, 1-{4-[1-(1-benzoylpiperidin-4-yl)-4-morpholin-4-yl-1H-pyrazolo[3,4-d]pyrimidin-6-yl]phenyl}-3-(2-fluoroethyl)urea] |  | 454 | < 27 | 27 |  |
| O=C(O)CCC(=O)Nc1ccc(-c2nc(N3CCOCC3)c3cnn(-c4ccccc4)c3n2)cc1 [Compound 109] | 45000 | 248 |  | 30000 |  |
| O=CN1CCC(n2ncc3c(N4CCOCC4)nc(-c4ccc5[nH]ccc5c4)nc32)CC1 [Compound 518, 4-[6-(1H-indol-5-yl)-4-morpholin-4-yl-1H-pyrazolo[3,4-d]pyrimidin-1-yl]piperidine-1-carbaldehyde] | 1000 | 2800 |  | 3000 |  |
| CNC(=O)Nc1ccc(-c2nc(N3CCOCC3)c3cnn(C4CCN(C(=O)c5cccc(C(C)=O)c5)CC4)c3n2)cc1 [Compound 667, 1-(4-{1-[1-(3-acetylbenzoyl)piperidin-4-yl]-4-morpholin-4-yl-1H-pyrazolo[3,4-d]pyrimidin-6-yl}phenyl)-3-methylurea] |  | 83 | 110 |  | 150 |
| O=C(Nc1ccc(-c2nc(N3CCOCC3)c3cnn(C4CCN(Cc5cccnc5)CC4)c3n2)cc1)NC1CC1 [Compound 649, 1-cyclopropyl-3-(4-{4-morpholin-4-yl-1-[1-(pyridin-3-ylmethyl)piperidin-4-yl]-1H-pyrazolo[3,4-d]pyrimidin-6-yl}phenyl)urea] |  | 438 | < 27 |  | 85 |
| C=CC(=O)Nc1ccc(-c2nc(N3CCOCC3)c3cn[nH]c3n2)cc1 [Compound 526, N-[4-(4-morpholin-4-yl-1H-pyrazolo[3,4-d]pyrimidin-6-yl)phenyl]acrylamide] | 3400 | 601 |  | 7000 |  |
| CNC(=O)Nc1cccc(-c2nc(N3CCOCC3)c3cnn(C4CCN(Cc5ccccc5)CC4)c3n2)c1 [Compound 228, N-{3-[1-(1-benzylpiperidin-4-yl)-4-morpholin-4-yl-1H-pyrazolo[3,4-d]pyrimidin-6-yl]phenyl}-N′-methylurea] | 5800 | 1920 |  | 6800 |  |
| COCCN1CCC(n2ncc3c(N4CCOCC4)nc(-c4ccc5[nH]ccc5c4)nc32)CC1 [Compound 491, 6-(1H-indol-5-yl)-1-[1-(2-methoxyethyl)piperidin-4-yl]-4-morpholin-4-yl-1H-pyrazolo[3,4-d]pyrimidine] | 2400 | 5000 |  | 4200 |  |
| Nc1ccc(-c2nc(N3CCOCC3)c3cnn(C4CCN(Cc5ccccc5)CC4)c3n2)cc1F [Compound 347, 4-[1-(1-benzylpiperidin-4-yl)-4-morpholin-4-yl-1H-pyrazolo[3,4-d]pyrimidin-6-yl]-2-fluoroaniline] | 2000 | 1650 |  | 4000 |  |
| Fc1cc(F)cc(-c2nc(N3CCOCC3)c3cnn(C4CCN(Cc5ccccc5)CC4)c3n2)c1 [Compound 88] | 60000 | 2190 |  | 58000 |  |
| O=C(NCCF)Nc1ccc(-c2nc(N3CCOCC3)c3cnn(C4CCN(C(=O)c5cccnc5)CC4)c3n2)cc1 [Compound 548, 1-(2-fluoroethyl)-3-(4-{4-morpholin-4-yl-1-[1-(pyridin-3-ylcarbonyl)piperidin-4-yl]-1H-pyrazolo[3,4-d]pyrimidin-6-yl}phenyl)urea] | 630 | 541 |  | 520 |  |
| Oc1cccc(-c2nc(N3CCOCC3)c3cnn(C4CCNCC4)c3n2)c1 [Compound 9] | 370 | 36 |  | 2200 |  |
| c1ccc(-n2ncc3c(N4CCOCC4)nc(-c4ccc(CN5CCOCC5)cc4)nc32)cc1 [Compound 130] | 60000 | 822 |  | 60000 |  |
| O=C(c1ccc(F)nc1)N1CCC(n2ncc3c(N4CCOCC4)nc(-c4ccc5[nH]ccc5c4)nc32)CC1 [Compound 201] | 740 | 2020 |  | 3000 |  |
| COCCCNC(=O)Nc1ccc(-c2nc(N3CCOCC3)c3cnn(C4CCN(Cc5ccccc5)CC4)c3n2)cc1 [Compound 270, 1-{4-[1-(1-benzylpiperidin-4-yl)-4-morpholin-4-yl-1H-pyrazolo[3,4-d]pyrimidin-6-yl]phenyl}-3-(3-methoxypropyl)urea] | 600 | 753 |  | 3200 |  |
| CC(=O)Nc1ccc(-c2nc(N3CCOCC3)c3cnn(Cc4ccccc4)c3n2)cc1 [Compound 180] | 2000 | 405 |  | 5800 |  |
| Nc1cccc(-c2nc(N3CCOCC3)c3cnn(C4CCN(C(=O)c5cccnc5)CC4)c3n2)n1 [Compound 436, 6-{4-morpholin-4-yl-1-[1-(pyridin-3-ylcarbonyl)piperidin-4-yl]-1H-pyrazolo[3,4-d]pyrimidin-6-yl}pyridin-2-amine] | 9800 | 4990 |  | 25000 |  |
| CN(C)CCCNC(=O)Nc1ccc(-c2nc(N3CCOCC3)c3cnn(C4CCN(Cc5ccccc5)CC4)c3n2)cc1 [Compound 271, 1-{4-[1-(1-benzylpiperidin-4-yl)-4-morpholin-4-yl-1H-pyrazolo[3,4-d]pyrimidin-6-yl]phenyl}-3-[3-(dimethylamino)propyl]urea] | 650 | 158 |  | 2000 |  |

More lines, main results first:

| IC50 ([2]; Homo sapiens, LNCaP, 72 h) [nM] | IC50 [3] [nM] | IC50 [2] [nM] | SMILES | IC50 ([1]; Homo sapiens, 72 h) [nM] | IC50 [1] [nM] |
| --- | --- | --- | --- | --- | --- |
| 1200 | 48 |  | CNCCNC(=O)Nc1ccc(-c2nc(N3CCOCC3)c3cnn(C4CCN(C(=O)c5ccccc5)CC4)c3n2)cc1 [Example 386, 1-{4-[1-(1-benzoylpiperidin-4-yl)-4-morpholin-4-yl-1H-pyrazolo[3,4-d]pyrimidin-6-yl]phenyl}-3-[2-(methylamino)ethyl]urea] | 1400 |  |
| 900 | 155 |  | NNC(=O)Nc1ccc(-c2nc(N3CCOCC3)c3cnn(C4CCN(Cc5ccccc5)CC4)c3n2)cc1 [Example 309, N-{4-[1-(1-benzylpiperidin-4-yl)-4-morpholin-4-yl-1H-pyrazolo[3,4-d]pyrimidin-6-yl]phenyl}hydrazinecarboxamide] | 7500 |  |
| 120 | 734 |  | O=C(Nc1ccc(-c2nc(N3CCOCC3)c3cnn(C4CCN(CC(F)(F)F)CC4)c3n2)cc1)NC1CC1 [Compound 788, 1-cyclopropyl-3-(4-{4-morpholin-4-yl-1-[1-(2,2,2-trifluoroethyl)piperidin-4-yl]-1H-pyrazolo[3,4-d]pyrimidin-6-yl}phenyl)urea] | 1600 |  |
| 12 | 4550 |  | CCOC(=O)N1CCC(n2ncc3c(N4CCOC[C@H]4C)nc(-c4ccc(NC(=O)NCCF)cc4)nc32)CC1 [Compound 890, ethyl 4-{6-(4-{[(2-fluoroethyl)carbamoyl]amino}phenyl)-4-[(3R)-3-methylmorpholin-4-yl]-1H-pyrazolo[3,4-d]pyrimidin-1-yl}piperidine-1-carboxylate] | 500 |  |
| 400 | 71 |  | CNC(=O)Nc1ccc(-c2nc(N3CCOCC3)c3cnn(C4CCN(C(=O)N5CCN(C)CC5)CC4)c3n2)cc1 [Example 334, 1-methyl-3-[4-(1-{1-[(4-methylpiperazin-1-yl)carbonyl]piperidin-4-yl}-4-morpholin-4-yl-1H-pyrazolo[3,4-d]pyrimidin-6-yl)phenyl]urea] | 700 |  |
|  | 442 | 3700 | CC(=O)Nc1ccc(-c2nc(N3CCOCC3)c3cn[nH]c3n2)cc1 [Compound 926, N-[4-(4-morpholin-4-yl-1H-pyrazolo[3,4-d]pyrimidin-6-yl)phenyl]acetamide] |  | 8500 |
| 40 | 28 |  | CCOC(=O)N1CCC(n2ncc3c(N4CCOC[C@@H]4C)nc(-c4ccc(NC(=O)Nc5cccnc5)cc4)nc32)CC1 [Compound 897, ethyl 4-(4-[(3S)-3-methylmorpholin-4-yl]-6-{4-[(pyridin-3-ylcarbamoyl)amino]phenyl}-1H-pyrazolo[3,4-d]pyrimidin-1-yl)piperidine-1-carboxylate] | 320 |  |
| 700 | 140 |  | CNC(=O)Nc1ccc(-c2nc(N3CCOCC3)c3cnn(C4CCN(C(=O)OCCBr)CC4)c3n2)cc1 [Compound 804, 2-bromoethyl 4-(6-{4-[(methylcarbamoyl)amino]phenyl}-4-morpholin-4-yl-1H-pyrazolo[3,4-d]pyrimidin-1-yl)piperidine-1-carboxylate] | 800 |  |
| 330 | 91 |  | O=C(Nc1ccc(-c2nc(N3CCOCC3)c3cnn(C4CCN(Cc5cccnc5)CC4)c3n2)cc1)Nc1ccccn1 [Example 341, 1-(4-{4-morpholin-4-yl-1-[1-(pyridin-3-ylmethyl)piperidin-4-yl]-1H-pyrazolo[3,4-d]pyrimidin-6-yl}phenyl)-3-pyridin-2-ylurea] | 1800 |  |
| 5000 | 45 |  | CNCCNC(=O)Nc1ccc(-c2nc(N3CCOCC3)c3cnn(C4CCN(C(=O)c5cccnc5)CC4)c3n2)cc1 [Example 346, 1-[2-(methylamino)ethyl]-3-(4-{4-morpholin-4-yl-1-[1-(pyridin-3-ylcarbonyl)piperidin-4-yl]-1H-pyrazolo[3,4-d]pyrimidin-6-yl}phenyl)urea] | 9000 |  |
| 7300 | 716 |  | CC(C)(C)OC(=O)N1CCC(n2ncc3c(N4CCOCC4)nc(-c4ccc(NC(=O)Nc5cnccn5)cc4)nc32)CC1 [Compound 885, tert-butyl 4-(4-morpholin-4-yl-6-{4-[(pyrazin-2-ylcarbamoyl)amino]phenyl}-1H-pyrazolo[3,4-d]pyrimidin-1-yl)piperidine-1-carboxylate] | 24000 |  |
